# Literature values, collected in patent US20220003741A1, “ORAL WASH FOR ORAL FLUID COLLECTION AND ANALYSIS AND METHODS OF USE THEREOF” (priority 2018, published 2022).
# Tests used:
# [1] = not given; remark: listed apart in the source
# [2] = versus aripiprazole and dehydro aripiprazole
smiles,measurement,setting,value
CN1CCCC1c1cccnc1 (centres unmarked) [nicotine],time to reach the brain after inhalation,"after inhalation, crosses the blood-brain barrier",10 to 20 s
same,elimination half-life of nicotine in the body,in vivo,around two
CCCCCc1cc(O)c2c(c1)OC(C)(C)[C@@H]1CCC(C)=C[C@@H]21 [THC],fraction of THC excreted in the feces,[1]; feces,More than 55%
same,fraction of THC excreted in the urine,[1]; urine,approximately 20%
O=C(O)CCCOc1ccc2c(c1)NC(=O)CC2 [OPC-3373],water solubility compared with parent compound aripiprazole and dehydro aripiprazole,[2],much more water soluble
